Reference: US20050014845A1, “Ambroxol for the treatment of epilepsy” (Boehringer Ingelheim International GmbH, priority 2003, published 2005)

Experiments:
[1] = system: centrally expressed neuronal sodium channels; details: neuronal sodium channel subtypes, read-out: half-maximal inhibition of centrally expressed channels; cited from earlier work
human GluR1/2 receptors = molecular target: T1, human GluR1/2 receptors (Homo sapiens, UniProt P42261+P42262); assay: Patch-Clamp of glutamate-induced membrane currents in HEK 293 cells expressing GluR1/2; type: cell-based; details: 1 mM glutamate for 1 s, holding potential −80 mV
T1 construct: expressed in transfected cells; host or cells: HEK 293
T1 sequence (P42261 19-906): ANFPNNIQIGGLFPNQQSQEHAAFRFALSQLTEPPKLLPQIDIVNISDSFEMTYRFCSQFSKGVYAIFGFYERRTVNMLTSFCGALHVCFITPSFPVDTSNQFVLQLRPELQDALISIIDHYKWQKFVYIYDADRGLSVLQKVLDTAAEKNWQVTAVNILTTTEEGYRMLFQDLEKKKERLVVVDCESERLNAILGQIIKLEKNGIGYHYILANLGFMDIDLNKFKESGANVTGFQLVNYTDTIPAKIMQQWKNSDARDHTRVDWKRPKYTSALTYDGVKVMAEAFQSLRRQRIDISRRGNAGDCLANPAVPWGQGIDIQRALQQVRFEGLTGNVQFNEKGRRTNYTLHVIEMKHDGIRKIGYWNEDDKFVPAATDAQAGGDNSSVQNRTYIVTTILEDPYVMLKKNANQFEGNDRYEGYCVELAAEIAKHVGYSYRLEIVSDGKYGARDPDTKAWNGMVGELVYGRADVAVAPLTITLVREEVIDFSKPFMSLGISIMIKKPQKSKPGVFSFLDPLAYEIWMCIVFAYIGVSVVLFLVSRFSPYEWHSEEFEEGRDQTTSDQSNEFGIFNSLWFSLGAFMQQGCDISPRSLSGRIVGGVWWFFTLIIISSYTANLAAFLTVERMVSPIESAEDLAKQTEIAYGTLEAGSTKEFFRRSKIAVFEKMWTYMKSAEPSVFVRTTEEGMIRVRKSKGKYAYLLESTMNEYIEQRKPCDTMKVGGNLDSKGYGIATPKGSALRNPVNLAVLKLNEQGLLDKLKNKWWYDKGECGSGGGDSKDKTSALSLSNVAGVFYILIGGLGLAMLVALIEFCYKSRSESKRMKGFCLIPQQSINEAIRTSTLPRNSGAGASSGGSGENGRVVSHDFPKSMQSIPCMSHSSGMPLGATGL
T1 sequence (P42262 22-883 limits assumed): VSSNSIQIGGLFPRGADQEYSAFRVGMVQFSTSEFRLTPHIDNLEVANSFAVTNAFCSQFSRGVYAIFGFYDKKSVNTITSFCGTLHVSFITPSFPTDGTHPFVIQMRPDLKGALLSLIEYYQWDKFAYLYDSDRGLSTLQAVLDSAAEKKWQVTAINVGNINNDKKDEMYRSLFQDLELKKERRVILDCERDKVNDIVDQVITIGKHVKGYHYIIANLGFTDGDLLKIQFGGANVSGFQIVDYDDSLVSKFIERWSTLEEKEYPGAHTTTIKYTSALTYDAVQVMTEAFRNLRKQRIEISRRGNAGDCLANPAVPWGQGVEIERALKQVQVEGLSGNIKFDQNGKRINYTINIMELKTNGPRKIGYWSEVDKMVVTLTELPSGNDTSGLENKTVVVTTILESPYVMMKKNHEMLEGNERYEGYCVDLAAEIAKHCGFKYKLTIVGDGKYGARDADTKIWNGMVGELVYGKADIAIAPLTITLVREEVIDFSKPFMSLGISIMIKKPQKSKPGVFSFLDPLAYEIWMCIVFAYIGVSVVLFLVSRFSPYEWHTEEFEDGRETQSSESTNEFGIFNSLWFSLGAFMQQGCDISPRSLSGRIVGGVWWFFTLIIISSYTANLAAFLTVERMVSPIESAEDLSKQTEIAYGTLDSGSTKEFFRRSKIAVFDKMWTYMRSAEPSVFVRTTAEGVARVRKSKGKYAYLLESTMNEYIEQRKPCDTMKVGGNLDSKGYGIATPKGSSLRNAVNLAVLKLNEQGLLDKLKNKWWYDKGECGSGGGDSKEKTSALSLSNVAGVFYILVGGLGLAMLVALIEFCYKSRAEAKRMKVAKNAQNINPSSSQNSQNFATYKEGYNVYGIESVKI
Procedure: HEK 293 cells which expressed functionally recombinant human GluR1/2 receptors were electrophysiologically investigated by the Patch-Clamp method ([…]). The administration of 1 mM glutamate (for 1 s at a holding potential of −80 mV) induced membrane currents which were inhibited by the joint administration of ambroxol.

SMILES: Nc1c(Br)cc(Br)cc1CN[C@H]1CC[C@H](O)CC1 [ambroxol, trans-4-(2-amino-3,5-dibromobenzylamino)cyclohexanol]
- IC50 [1]: 111 µM
- concentrations inhibiting glutamate-induced membrane currents (human GluR1/2 receptors): 30 to 1000 µM
